In ChEMBL document CHEMBL1201862, “PubChem BioAssay data set” (2004):
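A five-concentration, 48-hour dose response in 96-well plates underlies each endpoint, interpolated linearly between surrounding concentrations. GI50 = concentration required for 50% inhibition of growth.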 The source made the active and inactive calls. Rule as the data show it: active = GI50 up to about 1.1 µM and inactive = higher.

Columns and labels:
Test in all cases: growth of human tumour cells (NCI), 48 h
786-0 = system: 786-0
BT-549 = system: BT-549
CAKI-1 = system: CAKI-1
EKVX = system: EKVX
HCT-116 = system: HCT-116
HL-60 = system: HL-60
HOP-62 = system: HOP-62
HOP-92 = system: HOP-92
K562 = system: K562
MDA-MB-435 = system: MDA-MB-435
MDA-N = system: MDA-N
MOLT-4 = system: MOLT-4
Malme-3M = system: Malme-3M
NCI-H23 = system: NCI-H23
OVCAR-5 = system: OVCAR-5
SK-MEL-5 = system: SK-MEL-5
SNB-75 = system: SNB-75
T47D = system: T47D
UACC-257 = system: UACC-257
UO-31 = system: UO-31

`CC1OC(CC(=O)O)CC2=C1C(=O)c1c(O)cccc1C2=O` (stereo not given) [NANAOMYCIN] was tested, and the GI50 (786-0) was 137 nM (active), the GI50 (BT-549) was 116 nM (active) and the GI50 (CAKI-1) was 95.5 nM (active). For the same compound, the GI50 (EKVX) was 708 nM (active), the GI50 (HCT-116) was 49.9 nM (active) and the GI50 (HL-60) was 16 nM (active). For the same compound, the GI50 (HOP-62) was 1550 nM (inactive), the GI50 (HOP-92) was 125 nM (active) and the GI50 (K562) was 22 nM (active). For the same compound, the GI50 (MDA-MB-435) was 138 nM (active), the GI50 (MDA-N) was 182 nM (active) and the GI50 (MOLT-4) was 30.9 nM (active). The GI50 (Malme-3M) was 203 nM (active), the GI50 (NCI-H23) was 560 nM (active) and the GI50 (OVCAR-5) was 1390 nM (inactive). For the same compound, the GI50 (SK-MEL-5) was 289 nM (active), the GI50 (SNB-75) was 1500 nM (inactive) and the GI50 (T47D) was 188 nM (active). The GI50 (UACC-257) was 96.8 nM (active) and the GI50 (UO-31) was 483 nM (active).
